Patent US10363251B2, “(+)-morphinans as antagonists of toll-like receptor 9 and therapeutic uses thereof” (Mallinckrodt LLC, priority 2009, dated 2019)
Where two headings read alike, the source gives them in different places.

Biological target: T1, TLR9 (Homo sapiens, UniProt Q9NR96)
T1 construct: expressed in transfected cells; host or cells: HEK293
T1 sequence (Q9NR96 26-1032): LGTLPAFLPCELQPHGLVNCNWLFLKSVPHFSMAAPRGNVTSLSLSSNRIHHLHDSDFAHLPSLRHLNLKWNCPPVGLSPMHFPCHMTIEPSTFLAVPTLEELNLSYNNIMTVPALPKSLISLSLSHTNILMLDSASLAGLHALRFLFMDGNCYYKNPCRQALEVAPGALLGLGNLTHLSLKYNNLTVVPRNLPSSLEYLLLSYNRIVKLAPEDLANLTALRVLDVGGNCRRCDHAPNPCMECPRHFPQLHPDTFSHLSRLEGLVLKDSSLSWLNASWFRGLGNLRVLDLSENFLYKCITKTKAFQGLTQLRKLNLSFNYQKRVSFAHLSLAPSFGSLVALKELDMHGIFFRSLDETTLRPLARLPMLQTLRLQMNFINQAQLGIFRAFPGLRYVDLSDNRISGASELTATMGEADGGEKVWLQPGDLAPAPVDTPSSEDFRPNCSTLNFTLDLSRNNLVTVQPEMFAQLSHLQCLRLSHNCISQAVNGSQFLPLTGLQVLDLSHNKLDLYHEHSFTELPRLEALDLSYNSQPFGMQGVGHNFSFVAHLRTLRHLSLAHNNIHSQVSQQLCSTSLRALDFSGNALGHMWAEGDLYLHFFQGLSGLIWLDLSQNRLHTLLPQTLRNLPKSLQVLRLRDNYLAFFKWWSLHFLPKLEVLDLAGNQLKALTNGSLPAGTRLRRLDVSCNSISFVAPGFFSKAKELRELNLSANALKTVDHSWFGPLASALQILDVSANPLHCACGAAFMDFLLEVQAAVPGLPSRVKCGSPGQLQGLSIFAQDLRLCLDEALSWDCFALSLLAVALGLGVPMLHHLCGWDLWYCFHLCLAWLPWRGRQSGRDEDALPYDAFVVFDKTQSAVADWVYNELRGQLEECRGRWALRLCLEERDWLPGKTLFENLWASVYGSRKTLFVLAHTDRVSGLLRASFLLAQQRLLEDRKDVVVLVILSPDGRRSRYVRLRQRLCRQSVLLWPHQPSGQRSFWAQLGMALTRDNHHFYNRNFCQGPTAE
Assay: TLR9 screening of (+)-morphinan library, SEAP reporter in HEK293 cells expressing TLR9
Type: cell-based
Conditions: activator ODN2006; for OD 650 nm (mean ± sd): control (no activator) 0.14, activator 1.42 OD
Description: The secreted alkaline phosphatase reporter is under the control of a promoter inducible by the transcription factor NF-κB. A library of more than 100 (+)-morphinan compounds was screened for TLR9 antagonist activity by assessing NF-κB activation in the HEK293 cells expressing TLR9. This reporter gene allows the monitoring of signaling through the TLR, based on the activation of NF-κB.
In a 96-well plate (200 μL total volume) containing 50,000 cells/well, 20 μL of each sample compound was added to wells, in triplicate, followed by a 30 minute incubation at 37° C. and 5% CO2. After the 30 minutes of incubation, 20 μL of the activator ODN2006 was added to each well. The media added to the wells was designed for the detection of NF-κB induced SEAP expression. After a 16-20 hr incubation period, the OD at 650 nm was read on a Beckman Coulter AD 340C Absorbance Detector. All compounds were tested at concentrations of 10 μM and 100 nM.

[1] = HEK293, read-out: % Inhibition (mean), 100 nM
[2] = HEK293, read-out: % Inhibition (mean), 10 μM

Structure (SMILES)	OD 650 nm (mean ± sd) (100 nM)	OD 650 nm (mean ± sd) (10 μM)	inhibition at 0.1 µM [1]	inhibition at 10 µM [2]	inhibition at 0.1 µM (HEK293, 100 nM, read-out: % Inhibition (mean))	inhibition at 10 µM (HEK293, 10 μM, read-out: % Inhibition (mean))	% Inhibition (mean) (10 μM)	% Inhibition (mean) (100 nM, 0.1 µM)
COc1ccc2c3c1O[C@@H]1C(=O)CC[C@@H]4[C@H](C2)N(C(=O)c2ccccc2)CC[C@@]314 [II-33]	1.35 ± 0.15 OD	1.37 ± 0.03 OD	5%	3%	–	–	–	–
COc1ccc2c3c1O[C@@H]1C(=O)CC[C@]4(O)[C@H](C2)N(C(=O)c2ccccc2)CC[C@@]314 [II-60]	1.24 ± 0.04 OD	0.17 ± 0.03 OD	13%	88%	–	–	–	–
COc1ccc2c(c1O)[C@@]13CCN(C)[C@@H](C2)[C@@]1(O)CCC(=O)C3 [Compound I-25]	1.08 ± 0.05 OD	0.52 ± 0.07 OD	24%	63%	–	–	–	–
O=C1CC[C@]2(O)[C@@H]3Cc4ccc(O)c5c4[C@]2(CCN3CC2CC2)[C@@H]1O5 [II-73]	1.35 ± 0.13 OD	0.96 ± 0.08 OD	5%	32%	–	–	–	–
COc1ccc2c(c1O)[C@@]13CCN(CC4CCC4)[C@@H](C2)C1CCC(=O)C3 (stereo partly drawn) [Compound I-29]	1.06 ± 0.03 OD	0.11 ± 0.00 OD	25%	92%	–	–	–	–
COc1ccc2c(c1)CCN(CC1CCC1)[C@@H]2Cc1ccc(OC)c(O)c1 [III-4]	1.04 ± 0.04 OD	0.11 ± 0.01 OD	–	–	27%	92%	–	–
C=CCN1CC[C@@]23c4c5ccc(OC)c4OC2C(OC(C)=O)CC[C@@H]3C1C5 (single isomer, unassigned) [II-94a]	1.13 ± 0.04 OD	1.16 ± 0.08 OD	20%	–	–	–	18%	–
COc1cc(Br)c2c3c1OC1C(=O)CC[C@@H]4[C@H](C2)N(C)CC[C@@]314 (stereo partly drawn) [II-11]	1.22 ± 0.10 OD	0.44 ± 0.05 OD	14%	69%	–	–	–	–
C=CCN1CC[C@@]23c4c5ccc(OC)c4O[C@@H]2C(=O)CC[C@]3(O)[C@@H]1C5 [II-47]	1.18 ± 0.13 OD	0.78 ± 0.07 OD	17%	45%	–	–	–	–
COC1=CC=C2[C@@H]3Cc4ccc(OC)c5c4[C@]2(CCN3CC2CCC2)[C@@H]1O5 [II-37]	1.13 ± 0.07 OD	0.18 ± 0.06 OD	20%	87%	–	–	–	–
COc1ccc2c3c1O[C@@H]1C(=O)CC[C@@H]4[C@H](C2)N(C(C)=O)CC[C@@]314 [II-31]	1.40 ± 0.04 OD	1.37 ± 0.11 OD	2%	3%	–	–	–	–
COc1ccc2c3c1OC1C(OC(C)=O)CCC4C(C2)N(C)CC[C@]341 (stereo partly drawn) [II-8]	1.15 ± 0.07 OD	1.33 ± 0.06 OD	19%	7%	–	–	–	–
COc1ccc2c(c1O)[C@@]13CCN(C)[C@@H](C2)[C@@]1(O)CC(OC)C(=O)C3 (stereo partly drawn) [Compound I-9]	1.50 ± 0.10 OD	1.03 ± 0.01 OD	-6%	28%	–	–	–	–
COC1=CCC2[C@@H]3Cc4ccc(OC)c5c4[C@]2(CCN3CC2CC2)[C@@H]1O5 (stereo partly drawn) [II-95]	1.11 ± 0.04 OD	0.37 ± 0.03 OD	–	74%	–	–	–	22%
COC1=CCC2[C@@H]3Cc4ccc(OC)c5c4[C@]2(CCN3C(=O)Oc2ccccc2)[C@@H]1O5 (stereo partly drawn) [II-100]	1.16 ± 0.02 OD	1.45 ± 0.11 OD	18%	-2%	–	–	–	–
